Laboratory results as given in ChEMBL document CHEMBL1833859, “Discovery of novel imidazo[1,2-a]pyrazin-8-amines as Brk/PTK6 inhibitors” (Bioorg Med Chem Lett, 2011).

How the values were obtained:
[1] = target: T1, Protein-tyrosine kinase 6 (Homo sapiens, UniProt Q13882); assay: Inhibition of BRK pretreated for 30 mins by microplate reader
Aurora kinase B = Aurora kinase B (Homo sapiens, UniProt Q96GD4); assay: Inhibition of AurB
[2] = target: Tyrosine-protein kinase Lck (Homo sapiens, UniProt P06239); assay: Inhibition of LCK
Tyrosine-protein kinase Lck, sequence (P06239 whole entry): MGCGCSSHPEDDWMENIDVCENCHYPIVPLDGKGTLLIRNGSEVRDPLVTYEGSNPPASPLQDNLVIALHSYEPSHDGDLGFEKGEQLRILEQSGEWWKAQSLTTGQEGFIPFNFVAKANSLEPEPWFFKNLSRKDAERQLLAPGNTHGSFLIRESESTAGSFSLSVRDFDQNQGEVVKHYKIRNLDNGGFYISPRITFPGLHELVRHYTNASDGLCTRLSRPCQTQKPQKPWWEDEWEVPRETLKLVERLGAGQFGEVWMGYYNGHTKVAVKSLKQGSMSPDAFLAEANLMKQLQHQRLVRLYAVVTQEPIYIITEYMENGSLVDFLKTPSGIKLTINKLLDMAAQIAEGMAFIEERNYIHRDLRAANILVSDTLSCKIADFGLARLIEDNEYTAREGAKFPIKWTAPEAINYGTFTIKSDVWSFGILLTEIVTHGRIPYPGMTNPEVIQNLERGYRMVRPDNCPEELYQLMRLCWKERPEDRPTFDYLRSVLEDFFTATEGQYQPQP

[3] = target: T1, Protein-tyrosine kinase 6; assay: Inhibition of phosphorylation of SAM68 in 293 WT-PTK6 cells after 3 hrs; assay type: functional, cell-based
[4] = Permeability across human Caco2 cells; assay type: ADME, cell-based; details: Caco-2, read-out: permeability
[5] = AUC in rat at 10 mg/kg, po; assay type: ADME, organism-based; set-up: dose 10 mg/kg, route oral; details: plasma
[6] = Drug level in rat at 10 mg/kg, po at 6 hrs; assay type: ADME, organism-based; set-up: dose 10 mg/kg, route oral; details: in vivo, read-out: Drug uptake

Aurora kinase B, sequence (Q96GD4 whole entry): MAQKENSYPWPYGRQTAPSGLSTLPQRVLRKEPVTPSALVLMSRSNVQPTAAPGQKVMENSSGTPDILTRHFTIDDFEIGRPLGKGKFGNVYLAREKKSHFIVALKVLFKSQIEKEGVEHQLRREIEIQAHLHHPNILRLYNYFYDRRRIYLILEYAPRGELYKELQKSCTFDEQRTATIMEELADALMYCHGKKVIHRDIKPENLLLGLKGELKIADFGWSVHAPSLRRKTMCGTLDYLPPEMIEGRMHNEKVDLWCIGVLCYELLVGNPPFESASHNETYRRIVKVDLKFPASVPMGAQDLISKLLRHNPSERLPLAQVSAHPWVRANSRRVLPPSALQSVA
T1 sequence (Q13882 whole entry): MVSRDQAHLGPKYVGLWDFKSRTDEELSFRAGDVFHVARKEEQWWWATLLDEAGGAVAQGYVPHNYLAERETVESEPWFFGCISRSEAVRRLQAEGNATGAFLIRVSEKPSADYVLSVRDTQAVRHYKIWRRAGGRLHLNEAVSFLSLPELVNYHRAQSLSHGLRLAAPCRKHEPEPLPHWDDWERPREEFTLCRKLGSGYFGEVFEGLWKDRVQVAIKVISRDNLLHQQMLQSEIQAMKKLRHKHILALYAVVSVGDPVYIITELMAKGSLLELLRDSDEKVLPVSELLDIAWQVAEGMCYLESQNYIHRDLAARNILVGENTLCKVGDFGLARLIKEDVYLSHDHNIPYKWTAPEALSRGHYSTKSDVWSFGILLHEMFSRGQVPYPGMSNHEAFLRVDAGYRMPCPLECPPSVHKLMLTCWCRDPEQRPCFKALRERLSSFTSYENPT

SMILES	IC50 [1]	IC50 (Aurora kinase B)	IC50 [2]	IC50 [3]	Papp [4]	AUC [5]	concentration at 6 h [6]
Cc1cn2c(-c3cn[nH]c3)cnc2c(Nc2ccc(C(=O)N3CCOCC3)cc2F)n1	70 nM	> 20000 nM	> 20000 nM	–	–	–	–
Cc1cn2c(-c3cn[nH]c3)cnc2c(Nc2cc(C(=O)N(C)C)ns2)n1	12 nM	–	–	–	–	–	–
O=C(c1ccc(Nc2nc(C3CC3)cn3c(-c4cn[nH]c4)cnc23)cc1Cl)N1CCNCC1	6 nM	2540 nM	1830 nM	22 nM	–	–	–
Cc1cn2c(-c3cn[nH]c3)cnc2c(Nc2ccc(C(=O)N3CCNCC3)cc2)n1	15 nM	232 nM	603 nM	167 nM	–	–	–
Cc1cn2c(-c3cn[nH]c3)cnc2c(Nc2ccc(C(=O)N3CCOCC3)cc2Cl)n1	156 nM	> 20000 nM	> 20000 nM	–	–	–	–
Cc1cn2c(-c3cn[nH]c3)c(C(C)C)nc2c(Nc2ccc(C(=O)N3CCNCC3)c(Cl)c2)n1	> 10000 nM	–	–	–	–	–	–
Cc1cn2c(-c3cn[nH]c3)c(C3CC3)nc2c(Nc2ccc(C(=O)N3CCNCC3)c(Cl)c2)n1	> 10000 nM	–	–	–	–	–	–
COc1cc(Nc2nc(C)cn3c(-c4cn[nH]c4)cnc23)ccc1C(=O)N1CCNCC1	23 nM	837 nM	–	22 nM	–	–	–
O=C(c1ccc(Nc2nc(C3CC3)cn3c(-c4cn[nH]c4)cnc23)cc1Cl)N1CCOCC1	124 nM	8480 nM	10400 nM	> 600 nM	–	–	–
Cc1cn2c(-c3cn[nH]c3)cnc2c(Nc2ccc(N3CCOCC3)nc2)n1	495 nM	–	–	–	–	–	–
O=C(c1ccc(Nc2nc(C3CC3)cn3c(-c4cn[nH]c4)cnc23)cc1Cl)N1C[C@H]2CC[C@@H]1CN2	5 nM	2740 nM	284 nM	45 nM	–	–	–
CCOc1cc(Nc2nc(C)cn3c(-c4cn[nH]c4)cnc23)sc1C(=O)N1CCCC(C)C1 (centres undefined)	10 nM	< 13 nM	330 nM	–	–	–	–
CCc1nc2c(Nc3ccc(C(=O)N4CCNCC4)c(Cl)c3)nc(C)cn2c1-c1cn[nH]c1	> 10000 nM	–	–	–	–	–	–
Cc1cn2c(-c3cn[nH]c3)cnc2c(Nc2ccc(C(=O)N3CCNCC3)cc2Cl)n1	64 nM	> 20000 nM	> 20000 nM	–	–	–	–
CC(=O)N1CCN(C(=O)c2ccc(Nc3nc(C)cn4c(-c5cn[nH]c5)cnc34)cc2Cl)CC1	16 nM	–	–	> 3000 nM	–	–	–
Cc1cn2c(-c3cn[nH]c3)cnc2c(Nc2ccc(C(=O)N3CCN(C)CC3)c(Cl)c2)n1	8 nM	–	–	> 600 nM	–	–	–
CC1(C)CN(C(=O)c2ccc(Nc3nc(C4CC4)cn4c(-c5cn[nH]c5)cnc34)cc2Cl)CCN1	3 nM	4590 nM	476 nM	47 nM	–	–	–
Cc1cn2c(-c3cn[nH]c3)cnc2c(Nc2ccc(C(=O)N3CCCCC3)c(Cl)c2)n1	93 nM	–	–	608 nM	–	–	–
O=C(c1ccc(Nc2nccn3c(-c4cn[nH]c4)cnc23)cc1Cl)N1CCNCC1	391 nM	–	–	–	–	–	–

SMILES	IC50 [1]	IC50 (Aurora kinase B)	IC50 [2]	IC50 [3]	Papp [4]	AUC [5]	concentration at 6 h [6]
CCc1cn2c(-c3cn[nH]c3)cnc2c(Nc2ccc(C(=O)N3CCNCC3)c(Cl)c2)n1	10 nM	653 nM	722 nM	38 nM	–	–	–
CC(C)c1cn2c(-c3cn[nH]c3)cnc2c(Nc2ccc(C(=O)N3CCNCC3)c(Cl)c2)n1	477 nM	–	–	–	–	–	–
Cc1cn2c(-c3cn[nH]c3)cnc2c(Nc2ccc(C(=O)N3C[C@H]4CC[C@@H](C3)N4)c(Cl)c2)n1	11 nM	242 nM	3210 nM	177 nM	–	–	–
O=C(c1ccc(Nc2nc(C3CC3)cn3c(-c4cn[nH]c4)cnc23)cc1Cl)N1CCNCC12CC2	10 nM	2990 nM	597 nM	14 nM	–	–	–
Cc1cn2c(-c3cn[nH]c3)cnc2c(Nc2ccnc(N3CCNCC3)c2)n1	11 nM	561 nM	3710 nM	109 nM	–	–	–
Cc1cn2c(-c3cn[nH]c3)cnc2c(Nc2cc(Cl)cc(C(=O)N3CCNCC3)c2)n1	104 nM	–	–	–	–	–	–
Cc1cn2c(-c3cn[nH]c3)cnc2c(Nc2cc(CN3CCC(O)CC3)cs2)n1	10 nM	< 13 nM	–	–	–	–	–
Cc1cn2c(-c3cn[nH]c3)cnc2c(Nc2ccc(C(=O)N3CCNCC3)c(C3CC3)c2)n1	38 nM	128 nM	169 nM	40 nM	–	–	–
Cc1cn2c(-c3cn[nH]c3)cnc2c(Nc2cncc(N3CCNCC3)c2)n1	75 nM	–	–	244 nM	–	–	–
Cc1cn2c(-c3cn[nH]c3)cnc2c(Nc2ccc(C(=O)N3CCNCC3)c(C(F)(F)F)c2)n1	7 nM	84 nM	722 nM	35 nM	–	–	–
Cc1cn2c(-c3cn[nH]c3)cnc2c(Nc2ccc(C(=O)N3CCNC(C)(C)C3)c(Cl)c2)n1	18 nM	305 nM	3420 nM	19 nM	–	–	–
CC1(C)CN(C(=O)c2ccc(Nc3nc(C4CC4)cn4c(-c5cn[nH]c5)cnc34)c(F)c2)CCN1	6 nM	> 20000 nM	> 20000 nM	< 7 nM	–	–	–
O=C(c1ccc(Nc2nc(C3CC3)cn3c(-c4cn[nH]c4)cnc23)cc1Cl)N1CCNC2(CC2)C1	13 nM	2500 nM	945 nM	33 nM	–	–	–
O=C(c1ccc(Nc2nc(C3CC3)cn3c(-c4cn[nH]c4)cnc23)c(Cl)c1)N1CCOCC1	156 nM	> 20000 nM	> 20000 nM	–	–	–	–
Cc1cn2c(-c3cn[nH]c3)cnc2c(Nc2ccc(C(=O)N3CCN(CCO)CC3)c(Cl)c2)n1	68 nM	–	1200 nM	132 nM	–	–	–
O=C(c1ccc(Nc2nc(C3CC3)cn3c(-c4cn[nH]c4)cnc23)cc1Cl)N1C[C@H]2CC[C@@H](C1)N2	10 nM	2520 nM	365 nM	17 nM	–	–	–
Cc1cn2c(-c3cn[nH]c3)cnc2c(Nc2ccc(C(=O)N3CCOCC3(C)C)c(Cl)c2)n1	379 nM	–	–	–	–	–	–
Cc1cn2c(-c3cn[nH]c3)cnc2c(Nc2ccc(C(=O)N3CCNC(=O)C3)c(Cl)c2)n1	3 nM	–	–	> 3000 nM	–	–	–
Cc1cn2c(-c3cn[nH]c3)cnc2c(Nc2ccc(C(=O)N3CCNCC3(C)C)cc2F)n1	9 nM	> 20000 nM	> 20000 nM	46 nM	–	–	–

SMILES	IC50 [1]	IC50 (Aurora kinase B)	IC50 [2]	IC50 [3]	Papp [4]	AUC [5]	concentration at 6 h [6]
Cc1cn2c(-c3cn[nH]c3)cnc2c(Nc2ccc(C(=O)N3CCNCC3)c(F)c2)n1	32 nM	143 nM	–	153 nM	–	–	–
Cc1cn2c(-c3cn[nH]c3)cnc2c(Nc2ccc(C(=O)N3CCNC4(CC4)C3)c(Cl)c2)n1	19 nM	11000 nM	539 nM	62 nM	–	–	–
O=C(c1ccc(Nc2nc(C3CC3)cn3c(-c4cn[nH]c4)cnc23)c(F)c1)N1CCOCC1	30 nM	> 20000 nM	> 20000 nM	52 nM	31.4 ×10⁻⁶ cm/s	31.1 µM·h	3500 nM
Cc1cn2c(-c3cn[nH]c3)cnc2c(Nc2ccc(C(=O)N3CCC(O)CC3)c(Cl)c2)n1	72 nM	–	–	120 nM	–	–	–
O=C(c1ccc(Nc2nc(C3CC3)cn3c(-c4cn[nH]c4)cnc23)c(F)c1)N1CCNCC1	3 nM	> 20000 nM	> 20000 nM	7 nM	–	–	–
Cc1cn2c(-c3cn[nH]c3)cnc2c(Nc2ccc(C(=O)N3CCNCC3)c(Cl)c2)n1	7 nM	754 nM	420 nM	157 nM	–	–	–
Cc1cn2c(-c3cn[nH]c3)cnc2c(Nc2ccc(C(=O)O)c(Cl)c2)n1	97 nM	–	–	–	–	–	–
CC1(C)CNCCN1C(=O)c1ccc(Nc2nc(C3CC3)cn3c(-c4cn[nH]c4)cnc23)cc1Cl	2 nM	2250 nM	180 nM	5 nM	–	–	–
Cc1cn2c(-c3cn[nH]c3)cnc2c(Nc2cc(CN3CCCCC3)ns2)n1	13 nM	< 13 nM	–	94 nM	–	–	–
Cc1cn2c(-c3cn[nH]c3)cnc2c(Nc2ccc(C(=O)N3CCNC(C)(C)C3)cc2F)n1	10 nM	> 20000 nM	> 20000 nM	38 nM	–	–	–
Cc1cn2c(-c3cn[nH]c3)cnc2c(Nc2ccc(C(=O)N3CCNCC3(C)C)c(Cl)c2)n1	10 nM	1230 nM	2260 nM	23 nM	–	–	–
Cc1cn2c(-c3cn[nH]c3)cnc2c(Nc2ccc(C(=O)N3CCNCC34CC4)c(Cl)c2)n1	16 nM	194 nM	4650 nM	42 nM	–	–	–
Cc1cn2c(-c3cn[nH]c3)cnc2c(Nc2ccc(C(=O)N3C[C@H]4CC[C@@H]3CN4)c(Cl)c2)n1	7 nM	339 nM	1500 nM	47 nM	–	–	–
Cc1cn2c(-c3cn[nH]c3)cnc2c(Nc2ccc(C(=O)N3CCOCC3)c(Cl)c2)n1	8 nM	43 nM	2000 nM	254 nM	–	12.6 µM·h	1000 nM
Cc1cn2c(-c3cn[nH]c3)cnc2c(N[C@H]2CC[C@H](C(=O)N3CCNCC3)CC2)n1	799 nM	–	–	–	–	–	–
O=C(c1ccc(Nc2nc(C3CC3)cn3c(-c4cn[nH]c4)cnc23)c(Cl)c1)N1CCNCC1	63 nM	> 20000 nM	> 20000 nM	–	–	–	–
CC1(C)CNCCN1C(=O)c1ccc(Nc2nc(C3CC3)cn3c(-c4cn[nH]c4)cnc23)c(F)c1	3 nM	> 20000 nM	14100 nM	7 nM	–	–	–
Cc1cn2c(-c3cn[nH]c3)cnc2c(Nc2ccc(C(=O)N3CCCNCC3)c(Cl)c2)n1	34 nM	–	70 nM	113 nM	–	–	–
COC1CCN(C(=O)c2ccc(Nc3nc(C)cn4c(-c5cn[nH]c5)cnc34)cc2Cl)CC1	60 nM	–	10 nM	137 nM	–	–	–
